Data on ten compounds can be found in patent EP0152542A1, “Pyrrol-3-carboxylic acids having central analgesic activity” (POLI INDUSTRIA CHIMICA S.p.A., priority 1983, dated 1985).

Like-named read-outs stand apart in the source and are kept apart here.

Series [1] is described as follows: Acute toxicity per os in the mouse (LD50 at the 14th observation day). The note with it: in vivo, po. As to the method:
(§1) The analgesic activity of the compounds of for mula I, administered by the oral route has been determined by means of the following tests: • - Phenylquinone test in mice (Hendershot and Forsa ith - J. Pharmacol. Exp. Ther. 123, 237 (1959)) • - Hot plate test - Male albino mice, treated with increasing doses of the compound under test, are placed on a thermostatized plate at 55°C. The time necessary for the mouse to react to the painful stimulus is then measured. An effective dose 50 (ED50) is defined as the dose inducing a 50% increase of the reaction time, with respect to control animals. • - The acute toxicity per os has been studied in the mouse and in the rat and expressed as LD50 at the 14th observation day.

The subject of a further series is mice. Put plainly: Phenylquinone test in mice (analgesic activity). The note with it: Mus musculus. Format: in vivo. The method, then: as §1
A further series relates to Male albino mice. Put plainly: Hot plate test (thermostatized plate at 55°C, reaction time to painful stimulus). Format: in vivo. As to conditions: Mus musculus.
Series [2] can be described thus: Acute toxicity per os in the rat (LD50 at the 14th observation day). As to conditions: in vivo, po. As to the method: as §1
Series [3] relates to cyclooxygenase and the prostaglandinsynthetase. As to conditions: known compound, background statement; cited from earlier work.
Where [4] appears, read: mice, oral, read-out: PHENYLQUINONE ED50 OS.
Where [5] appears, read: sc, S.C., ED50 = dose inducing a 50% increase of the reaction time versus controls, plate at 55°C, read-out: HOT PLATE ED50 S.C. MICE.

On to `COc1ccc2c3c1O[C@H]1[C@@H](O)C=C[C@H]4[C@@H](C2)N(C)CC[C@@]341.Cl` [codeine hydrochloride, reference compound], for which the 50% lethal dose (LD50) (in general, the dose at which mortality reaches 50%) at 336 h in series [1] (comparison compound, per os, read-out: LD50 mouse per os) was 300 mg/kg. For the same compound, the ED50 (usually the midpoint of the dose-response relation) in the series with mice (po, read-out: ED50 phenylquinone) turned out to be 5.6 mg/kg; in the series with Male albino mice (comparison compound, route not given, read-out: ED50 hot plate), 25 mg/kg.
Turning to `Cc1c(C(=O)O)c(C)n(C)c1C(=O)c1ccc(Cl)cc1Cl` [R=CH3, R1=Cl, R2=H, R3=Cl, 1,2,4-Trimethyl-5-(2,4-dichlorobenzoyl)-pyrrol-3-carboxylic acid], the LD50 at 336 h in series [1] (mice, per os, 14th observation day, read-out: LD50 MICE OS) came to 1400 mg/kg; in series [2] (per os, 14th observation day), 1700 mg/kg. Besides, the figures for the ED50 with mice (setting [4]) and with Male albino mice (setting [5]) were 10.9 mg/kg and 5.7 mg/kg, respectively.
Regarding `Cc1cc(CC(=O)O)n(C)c1C(=O)c1ccc(Cl)cc1` [Zomepirac, 5-(p-chlorobenzoyl)-1,4-dimethyl-pyrrol-2-acetic acid], in series [3], the “inhibits the cyclooxygenase and the prostaglandinesynthetase” value is reported as “inhibits”.
Regarding `COc1ccc(C(=O)c2c(C)c(C(=O)O)c(C)n2C)cc1` [R=CH3, R1=OCH3, R2=H, R3=H], the median lethal dose (LD50) at 336 h in series [1] (read-out: LD50 MICE OS) and in series [2] was above 1600 mg/kg throughout. Moreover, the ED50 worked out at 8.4 mg/kg with mice (setting [4]) and 7.6 mg/kg in the series on Male albino mice (setting [5]).
As to `Cc1c(C(=O)O)c(C)n(C)c1C(=O)c1ccc(Cl)c(Cl)c1` [R=CH3, R1=Cl, R2=Cl, R3=H], the LD50 at 336 h in series [1] (read-out: LD50 MICE OS) is 800 mg/kg; in series [2], above 1600 mg/kg. In addition, the ED50 in the series on mice (setting [4]) amounted to 7.5 mg/kg; with Male albino mice (setting [5]), 4.7 mg/kg.
With `Cc1c(C(=O)O)c(C)n(C)c1C(=O)c1ccc(Cl)cc1` [R=CH3, R1=Cl, R2=H, R3=H, reference compound], the 50% lethal dose (LD50) at 336 h in series [1] (read-out: LD50 MICE OS) was 800 mg/kg; in series [2], above 1600 mg/kg. The ED50 was determined as 4.6 mg/kg in the series on mice (setting [4]) and 2.3 mg/kg in the series with Male albino mice (setting [5]).
For the compound `CCCCn1c(C)c(C(=O)O)c(C)c1C(=O)c1ccc(Cl)cc1` [R=C4H9, R1=Cl, R2=H, R3=H], the LD50 at 336 h was 1300 mg/kg in series [1] (read-out: LD50 MICE OS) and above 1600 mg/kg in series [2]. Also, the ED50 was found to be 6.3 mg/kg with mice (setting [4]) and 2.9 mg/kg in the series with Male albino mice (setting [5]).
In the same order, the values of `Cc1ccc(C(=O)c2c(C)c(C(=O)O)c(C)n2C)cc1` [R=CH3, R1=CH3, R2=H, R3=H] are 1400 mg/kg, above 1600 mg/kg, 10 mg/kg and above 10 mg/kg.
In the same order, the values of `Cc1c(C(=O)O)c(C)n(Cc2ccccc2Cl)c1C(=O)c1ccc(Cl)cc1` are 1200 mg/kg, above 1600 mg/kg, 10.8 mg/kg and 5.5 mg/kg.
In the same order, the values of `Cc1c(C(=O)O)c(C)n(Cc2ccccc2)c1C(=O)c1ccc(Cl)cc1` are 1500 mg/kg, above 1600 mg/kg, 7.6 mg/kg and 4.8 mg/kg.
